# Assay results taken from patent US7404943B2, “Methods for solubilizing and recovering fluorinated compounds” (The Regents of the University of California, priority 2001, dated 2008).
# Assay: Visual observation of solubility in organic solvent with and without CO2 pressure (windowed vessel)
# Assay type: physicochemical
# Conditions: 35° C.; for solubility in cyclohexane / solubility in CO2-expanded cyclohexane: 64 mg in 5 mL cyclohexane; for solubility in cyclohexane: 1 atm CO2, visual; for solubility in CO2-expanded cyclohexane: CO2 pressure 59 bar
# Method: The bis(methanol) adduct of complex 2 (Rh2(O2C(CF2)9F)4(MeOH)2, 64 mg) was placed in a windowed vessel along with a stir bar and 5 mL of cyclohexane, all at 35° C. […] The CO2 under these conditions is not supercritical and in the absence of the cyclohexane would not be liquid. […] When the CO2 pressure was released (slowly, so that the solvent was not lost by entrainment), then the liquid phase returned to its original volume and colour and the complex precipitated. The IR spectrum of the solid was identical to that of the original Rh2(O2C(CF2)9F)4(MeOH)2.
# The IR spectrum of the complex after precipitation is identical to that of the starting material. […] For example, complex 3 was insoluble in toluene at 26° C., dissolved in CO2-expanded toluene at 54 bar CO2 and was subsequently precipitated after CO2 release.
# [1] = listed as Rh2(O2C(CF2)9F)4(MeOH)2
compound,measurement,setting,value
"CO.CO.O=C([O-])C(F)(F)C(F)(F)C(F)(F)C(F)(F)C(F)(F)C(F)(F)C(F)(F)C(F)(F)C(F)(F)F.O=C([O-])C(F)(F)C(F)(F)C(F)(F)C(F)(F)C(F)(F)C(F)(F)C(F)(F)C(F)(F)C(F)(F)F.O=C([O-])C(F)(F)C(F)(F)C(F)(F)C(F)(F)C(F)(F)C(F)(F)C(F)(F)C(F)(F)C(F)(F)F.O=C([O-])C(F)(F)C(F)(F)C(F)(F)C(F)(F)C(F)(F)C(F)(F)C(F)(F)C(F)(F)C(F)(F)F.[Rh+3].[Rh+3] [bis(methanol) adduct of complex 2, Rh2(O2C(CF2)9F)4(MeOH)2]",solubility in cyclohexane,,completely insoluble
same,solubility in cyclohexane,[1],insoluble
same,solubility in CO2-expanded cyclohexane,,complete dissolution
same,solubility in CO2-expanded cyclohexane,[1],dissolves readily
same,solubility in gaseous CO2 (upper phase),"59 bar CO2, upper gaseous phase showed no discoloration",no solubility
